Earlier results as cited in patent US12357650B2, “Methods and compositions for cancer therapies that include delivery of halogenated thymidines and thymidine phosphorlylase inhibitors in combination with radiation” (Shuttle Pharmaceuticals, Inc., priority 2017, dated 2025).

System: cells
Settings: as compared to cells without the defective DNA; cited from earlier work

Structure (SMILES): O=c1[nH]c(=O)n([C@H]2C[C@H](O)[C@@H](CO)O2)cc1Br [BUdR, 5-bromo-2′-deoxyuridine]
- increase in susceptibility of cells to the lethal effects of RT: two-three fold
